Measured values taken from ChEMBL document CHEMBL5233277, “Oxidative Metabolism as a Modulator of Kratom's Biological Actions” (J Med Chem, 2021).
Active and inactive are the calls of the source. The rule behind the calls is not given here.

Assays:
[1] = molecular target: Cytochrome P450 3A (Homo sapiens, UniProt P08684+P20815+Q9HB55+P24462); assay: Metabolic stability in human liver microsomes assessed as CYP3A-mediated decomposition by measuring half life at 1 uM incubated for 60 mins in presence of ketoconazole by LC-MS/MS analysis; type: ADME, Microsome; conditions: 1 h
[2] = test system: Mus musculus; assay: Antinociceptive activity in po dosed 129Sv6 mouse model assessed as peak effect measured at 15 mins by radiant heat tail flick assay; type: functional; conditions: 129Sv6, 0.25 h
[3] = Drug metabolism in 129Sv6 mouse liver microsomes assessed as 3-dehydromitragynine formation at 1 uM incubated for 60 mins by LC-MS/MS analysis; type: ADME, Microsome; conditions: 1 h
[4] = Drug metabolism in C57BL/6J mouse plasma assessed as mitragynine pseudoindoxyl formation at 30 mg/kg, po measured after 8 hrs by LC-MS/MS analysis; type: ADME, organism-based; conditions: in vivo
[5] = Drug metabolism in human liver microsomes assessed as compound depletion at 1 uM incubated for 60 mins in presence of NADPH by LC-MS/MS analysis; type: ADME, Microsome; conditions: 1 h
[6] = Drug concentration in C57BL/6J mouse plasma at 30 mg/kg, po measured after 24 hrs by LC-MS/MS analysis; type: ADME, organism-based; conditions: in vivo, BLD = below limit of detection
[7] = Drug metabolism in human S9 fraction assessed as 3-dehydromitragynine formation at 1 uM incubated for 60 mins in presence of NADPH by LC-MS/MS analysis; type: ADME, subcellular; conditions: s9, 1 h
[8] = Drug metabolism in human liver microsomes assessed as mitragynine pseudoindoxyl formation at 1 uM incubated for 60 mins in presence of ketoconazole by LC-MS/MS analysis; type: ADME, Microsome; conditions: 1 h
[9] = Stability in 129Sv6 mouse liver microsomes assessed as half life at 1 uM incubated for 60 mins by LC-MS/MS analysis; type: ADME, Microsome; conditions: 1 h
[10] = Drug metabolism in 129Sv6 mouse plasma assessed as 3-dehydromitragynine formation at ED80, po; type: ADME, cell-free
[11] = Drug metabolism in C57BL/6J mouse plasma assessed as mitragynine pseudoindoxyl formation at 30 mg/kg, po measured after 20 mins by LC-MS/MS analysis; type: ADME, organism-based; conditions: in vivo
[12] = Drug metabolism in 129Sv6 mouse liver microsomes assessed as 3-dehydromitragynine formation at 1 uM incubated for 60 mins in presence of ketoconazole by LC-MS/MS analysis; type: ADME, Microsome; conditions: 1 h
[13] = test system: Mus musculus; assay: Antinociceptive activity in po dosed C57BL/6J mouse model assessed as peak effect measured at 20 mins by radiant heat tail flick assay; type: functional
[14] = Drug metabolism in human liver microsomes assessed as compound depletion at 1 uM incubated for 60 mins in absence of NADPH by LC-MS/MS analysis; type: ADME, Microsome; conditions: 1 h
[15] = Drug metabolism in C57BL/6J mouse liver microsomes assessed as 3-dehydromitragynine formation at 1 uM incubated for 60 mins in presence of ketoconazole by LC-MS/MS analysis; type: ADME, Microsome; conditions: 1 h
[16] = molecular target: Cytochrome P450 3A (Mus musculus, UniProt O09158+Q64464+Q64481+Q9JMA7); assay: Metabolic stability in C57BL/6J mouse liver microsomes assessed as CYP3A-mediated decomposition by measuring half life at 1 uM incubated for 60 mins in presence of ketoconazole by LC-MS/MS analysis; type: ADME, Microsome; conditions: 1 h
[17] = Drug metabolism in human S9 fraction assessed as mitragynine pseudoindoxyl formation at 1 uM incubated for 60 mins in absence of NADPH by LC-MS/MS analysis; type: ADME, subcellular; conditions: s9, 1 h
[18] = Drug metabolism in 129Sv6 mouse brain assessed as 3-dehydromitragynine formation at ED80, po; type: ADME, tissue-based
[19] = test system: Mus musculus; assay: Antinociceptive activity in DOR knock out 129Sv6 mouse at 10 mg/kg, po measured after 15 mins; type: functional, organism-based
[20] = test system: Mus musculus; assay: Antinociceptive activity in po dosed C57BL/6J mouse model assessed as time required for peak effect at ED50 by radiant heat tail flick assay; type: functional

Q: Which t1/2 [1] does the source give for `CC[C@@H]1CN2CCc3c([nH]c4cccc(OC)c34)[C@@H]2C[C@@H]1/C(=C\OC)C(=O)OC` here?
A: 37.4 min

Q: What about the ED50 [2] of the same compound?
A: 4 mg/kg

Q: And the Drug metabolism [3]?
A: Metabolite_Detected

Q: What about the Drug metabolism [4] of the same compound?
A: Metabolite_Notdetected

Q: What about the Drug metabolism [5] of the same compound?
A: Metabolite_Detected

Q: And the Cp [6]?
A: Bld

Q: What about the Drug metabolism [7] of the same compound?
A: Metabolite_Detected

Q: What about the Drug metabolism [8] of the same compound?
A: Metabolite_Notdetected

Q: And the t1/2 [9]?
A: 13.5 min

Q: And the Drug metabolism [10]?
A: 0.028 µM

Q: What about the Drug metabolism [11] of the same compound?
A: 20 nM

Q: And the Drug metabolism [12]?
A: Metabolite_Detected

Q: What about the ED50 [13] of the same compound?
A: 6.25 mg/kg

Q: And the Drug metabolism [14]?
A: Metabolite_Notdetected

Q: What about the Drug metabolism [15] of the same compound?
A: Metabolite_Detected

Q: What about the t1/2 [16] of the same compound?
A: 35.8 min

Q: What about the Drug metabolism [17] of the same compound?
A: Metabolite_Notdetected

Q: What about the Drug metabolism [18] of the same compound?
A: 0.035 µM

Q: What about the Activity [19] of the same compound?
A: Active

Q: And the Time [20]?
A: 15 min
